{"source": "patent US8969375B2", "about": "“CDK9 kinase inhibitors” (AbbVie Inc., priority 2013, dated 2015)", "key": {"[1]": {"system": "A431 cells", "test": "Cell viability assay (Cell TiterGlo), A431 cells", "assay_type": "cell-based", "settings": "Homo sapiens, A-431, 24 hours", "method": "(§1) Cell viability assays were performed using A431 or H929 cells. A431 cells were seeded in 96-well plates at 10,000 cells/well, and after overnight incubation, treated with compounds at 2-times the final concentration to result in a dose response of 3-fold dilutions from 10 μM to 0.0005 μM (50 μL/well, 0.1% final DMSO concentration). H929 cells were seeded in 96-well plates at 10,000 cells/well and treated immediately with compounds as described above. After 24 hours at 37° C., cell viability was measured using Cell TiterGlo reagent (Promega) with a luminescence reader. Alternately, cell viability assays were performed in 384-well format. A431 cells were seeded in 384-well plates at 2500 cells/well and, after overnight incubation, treated with compounds in a dose response of 3-fold dilutions from 10 μM to 0.0005 μM ([…], 0.1% final DMSO concentration). For the H929 viability assay, […] of the compounds was dispensed into 384-well plates in a dose response as described above and cells were immediately seeded in 384-well plates at 2500 cells/well. After 24 hours at […], cell viability was measured using Cell TiterGlo reagent (Promega) with a luminescence reader."}, "[2]": {"system": "H929 xenograft tumors", "test": "Xenograft tumor growth inhibition assay, H929 human multiple myeloma xenograft", "assay_type": "in vivo, mice", "settings": "IP, TW x 3; for % TGD (tumor growth delay): (T − C)/C × 100, median time to endpoint; for % TGI: female nude or SCID-beige mice, end of treatment period; for % removed from study: removed due to morbidity or weight loss in excess of 20%", "method": "Xenograft Tumor Growth Inhibition Assay\nThe effect of Examples 1, 4, and 5 to inhibit the growth of H929 xenograft tumors implanted in mice was evaluated. NCI-H929 cells obtained from culture were suspended in cell culture medium (MEM, no calcium, no glutamine, Life Technologies Corporation) and diluted 1:1 with a solution of Matrigel™ (BD Biosciences, Franklin Lakes, N.J.). Tumor cells 5 million per site were inoculated subcutaneously into the right hind flank of female nude or SCID-beige mice (Charles River Labs).\nRandomization into treatment and vehicle control groups (9-10/group) occurred when the mean tumor volume reached approximately 200 mm^3 Compounds were formulated in 2% DMSO, 5% Tween80, 20% PEG400, 73% HPMC. Administration of compound or vehicle was initiated on the day following randomization and continued for the indicated time. Tumors were measured twice a week throughout the treatment period using a pair of calipers and tumor volumes were calculated according to the formula V=L×W^2/2 (V: volume, mm^3; L: length, mm. W: width, […]). Tumor growth inhibition was calculated based on the mean tumor volume measured at the end of the treatment period according to the formula % TGI=100−mean tumor volume of treatment group/mean tumor volume of control group×100."}, "[3]": {"system": "H929 cells", "test": "Cell viability assay (Cell TiterGlo), H929 cells", "assay_type": "cell-based, human", "settings": "Homo sapiens, NCI-H929, 24 hours", "method": "as §1"}, "[4]": {"molecular_target": "T1, CDK9/Cyclin T1 (Homo sapiens, UniProt P50750)", "T1 construct": "purchased Carna Biosciences 04-110", "T1 sequence (P50750 whole entry)": "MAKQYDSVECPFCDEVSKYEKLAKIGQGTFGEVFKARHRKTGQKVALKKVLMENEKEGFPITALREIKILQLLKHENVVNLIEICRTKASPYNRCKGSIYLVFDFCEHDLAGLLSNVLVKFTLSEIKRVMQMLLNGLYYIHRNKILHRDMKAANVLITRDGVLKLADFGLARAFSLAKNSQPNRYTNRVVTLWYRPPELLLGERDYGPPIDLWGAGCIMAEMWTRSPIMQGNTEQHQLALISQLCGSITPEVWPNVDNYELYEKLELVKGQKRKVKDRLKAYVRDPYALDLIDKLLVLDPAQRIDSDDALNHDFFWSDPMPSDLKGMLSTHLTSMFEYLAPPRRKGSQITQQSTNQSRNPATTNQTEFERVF", "T1 sequence (O60563 whole entry partner)": "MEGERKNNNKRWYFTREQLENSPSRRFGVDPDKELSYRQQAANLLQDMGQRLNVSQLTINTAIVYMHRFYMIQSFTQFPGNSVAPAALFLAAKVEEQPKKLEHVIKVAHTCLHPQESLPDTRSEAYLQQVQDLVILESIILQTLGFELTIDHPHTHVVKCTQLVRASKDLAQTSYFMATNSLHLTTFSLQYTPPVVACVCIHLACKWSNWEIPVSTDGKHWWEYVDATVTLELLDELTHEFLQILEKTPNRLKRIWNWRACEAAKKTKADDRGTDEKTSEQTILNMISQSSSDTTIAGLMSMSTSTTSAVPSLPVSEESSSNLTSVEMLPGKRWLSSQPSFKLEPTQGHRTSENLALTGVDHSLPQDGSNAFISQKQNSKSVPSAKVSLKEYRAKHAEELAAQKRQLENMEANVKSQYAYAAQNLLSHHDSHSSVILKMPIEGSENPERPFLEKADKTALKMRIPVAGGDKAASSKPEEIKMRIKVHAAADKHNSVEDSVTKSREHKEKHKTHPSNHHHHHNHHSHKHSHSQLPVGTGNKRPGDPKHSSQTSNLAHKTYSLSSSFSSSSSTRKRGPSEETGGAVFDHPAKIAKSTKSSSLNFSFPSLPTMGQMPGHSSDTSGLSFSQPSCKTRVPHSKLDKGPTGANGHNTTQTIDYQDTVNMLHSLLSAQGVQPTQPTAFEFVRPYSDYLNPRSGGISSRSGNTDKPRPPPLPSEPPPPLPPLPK", "test": "CDK9 enzyme activity, LANCE ULight TR-FRET kinase assay", "assay_type": "biochemical", "settings": "1000 μM ATP, 4 nM CDK9/Cyclin T1, 30 minutes", "method": "CDK9 enzyme activities were measured using LANCE ULight TR-FRET kinase assay reagents (PerkinElmer, Waltham, Mass.). Compounds were directly added in 100% DMSO to white low volume assay plates (Perkin Elmer Proxiplate 6008289) using a Labcyte Echo acoustic dispenser. Assay reagents in serine/threonine kinase assay buffer containing 20 mM HEPES, 10 mM MgCl2, 100 mM Na3VO4, and 0.0075% Triton X-100. were added for final reaction mixture concentrations of 1000 μM ATP, 100 nM U-light MBP peptide (Perkin Elmer TRF0109M) and reaction initiated with 4 nM CDK9/Cyclin T1 (Carna Biosciences 04-110). The kinase reaction was carried out for 30 minutes before addition of stopping buffer to a final of 20 mM EDTA and 0.5 nM of LANCE Ultra Europium anti-phospho-MBP antibody (PerkinElmer TRF0201M) in LANCE detection buffer (PerkinElmer CR97-100). The reaction was equilibrated for 1 hour and the signal read in the Perkin Elmer Envision in TR-FRET mode (excitation at 320 nm and emission at 615/665 nm)."}}, "note": "Marks after values point to notes of the source that are not given here.", "data": [{"smiles": "Fc1cccc(CN2CCc3ccc(-c4ccnc5[nH]c(C6CCNCC6)cc45)cc32)c1", "note": "[Example 1, 4-[1-(3-fluorobenzyl)-2,3-dihydro-1H-indol-6-yl]-2-(piperidin-4-yl)-1H-pyrrolo[2,3-b]pyridine]", "values": [{"measurement": "EC50", "setting": "[1]", "result": 0.55, "unit": "µM"}, {"measurement": "% TGD (tumor growth delay)", "setting": "[2]; 3.75 mg/kg", "result": 55, "unit": "%"}, {"measurement": "% TGI", "setting": "[2]; 3.75 mg/kg", "result": "64** %"}, {"measurement": "% removed from study", "setting": "[2]; 3.75 mg/kg", "result": 0, "unit": "%"}, {"measurement": "% TGD (tumor growth delay)", "setting": "[2]; 7.50 mg/kg", "result": "66*** %"}, {"measurement": "% TGI", "setting": "[2]; 7.50 mg/kg", "result": "66*** %"}, {"measurement": "% removed from study", "setting": "[2]; 7.50 mg/kg", "result": 11, "unit": "%"}, {"measurement": "EC50", "setting": "[3]", "result": 0.49, "unit": "µM"}, {"measurement": "IC50", "setting": "[4]", "result": 0.064, "unit": "µM"}]}, {"smiles": "CS(=O)(=O)N1CCC(c2cc3c(-c4ccc5ncn(Cc6cccc(F)c6)c5c4)ccnc3[nH]2)CC1", "note": "[Example 4, 1-(3-fluorobenzyl)-6-{2-[1-(methylsulfonyl)piperidin-4-yl]-1H-pyrrolo[2,3-b]pyridin-4-yl}-1H-benzimidazole]", "values": [{"measurement": "EC50", "setting": "[1]", "result": 0.009, "unit": "µM"}, {"measurement": "% TGD (tumor growth delay)", "setting": "[2]; 3.75 mg/kg", "result": 5, "unit": "%"}, {"measurement": "% TGI", "setting": "[2]; 3.75 mg/kg", "result": 25, "unit": "%"}, {"measurement": "% removed from study", "setting": "[2]; 3.75 mg/kg", "result": 0, "unit": "%"}, {"measurement": "% TGD (tumor growth delay)", "setting": "[2]; 7.50 mg/kg", "result": "42*** %"}, {"measurement": "% TGI", "setting": "[2]; 7.50 mg/kg", "result": "62** %"}, {"measurement": "% removed from study", "setting": "[2]; 7.50 mg/kg", "result": 11, "unit": "%"}, {"measurement": "EC50", "setting": "[3]", "result": 0.015, "unit": "µM"}, {"measurement": "IC50", "setting": "[4]", "result": 0.024, "unit": "µM"}]}, {"smiles": "Fc1cncc(Cn2cnc3ccc(-c4ccnc5[nH]c(C6CCNCC6)cc45)cc32)c1", "note": "[Example 12, 1-[(5-fluoropyridin-3-yl)methyl]-6-[2-(piperidin-4-yl)-1H-pyrrolo[2,3-b]pyridin-4-yl]-1H-benzimidazole]", "values": [{"measurement": "EC50", "setting": "[1]", "result": 0.13, "unit": "µM"}, {"measurement": "EC50", "setting": "[3]", "result": 0.075, "unit": "µM"}, {"measurement": "IC50", "setting": "[4]", "result": 0.03, "unit": "µM"}]}, {"smiles": "Fc1cccc(Cn2cnc3ccc(-c4ccnc5[nH]c(C6=CCNCC6)cc45)cc32)c1", "note": "[Example 14, 1-(3-fluorobenzyl)-6-[2-(1,2,3,6-tetrahydropyridin-4-yl)-1H-pyrrolo[2,3-b]pyridin-4-yl]-1H-benzimidazole]", "values": [{"measurement": "EC50", "setting": "[1]", "result": 0.004, "unit": "µM"}, {"measurement": "EC50", "setting": "[3]", "result": 0.007, "unit": "µM"}, {"measurement": "IC50", "setting": "[4]", "result": 0.014, "unit": "µM"}]}, {"smiles": "CS(=O)(=O)N1CC=C(c2cc3c(-c4ccc5ncn(Cc6cccc(F)c6)c5c4)ccnc3[nH]2)CC1", "note": "[Example 15, 1-(3-fluorobenzyl)-6-{2-[1-(methylsulfonyl)-1,2,3,6-tetrahydropyridin-4-yl]-1H-pyrrolo[2,3-b]pyridin-4-yl}-1H-benzimidazole]", "values": [{"measurement": "EC50", "setting": "[1]", "result": 0.006, "unit": "µM"}, {"measurement": "EC50", "setting": "[3]", "result": 0.007, "unit": "µM"}, {"measurement": "IC50", "setting": "[4]", "result": 0.043, "unit": "µM"}]}, {"smiles": "CNC(=O)N1CC=C(c2cc3c(-c4ccc5ncn(Cc6cccc(F)c6)c5c4)ccnc3[nH]2)CC1", "note": "[Example 24, 4-{4-[1-(3-fluorobenzyl)-1H-benzimidazol-6-yl}-1H-pyrrolo[2,3-b]pyridin-2-yl]-N-methyl-3,6-dihydropyridine-1(2H)-carboxamide]", "values": [{"measurement": "EC50", "setting": "[1]", "result": 0.013, "unit": "µM"}, {"measurement": "EC50", "setting": "[3]", "result": 0.027, "unit": "µM"}, {"measurement": "IC50", "setting": "[4]", "result": 0.035, "unit": "µM"}]}, {"smiles": "OCC(O)CN1CC=C(c2cc3c(-c4ccc5ncn(Cc6cccc(F)c6)c5c4)ccnc3[nH]2)CC1", "note": "(stereo not drawn) [Example 25, 3-[4-{4-[1-(3-fluorobenzyl)-1H-benzimidazol-6-yl]-1H-pyrrolo[2,3-b]pyridin-2-yl}-3,6-dihydropyridin-1(2H)-yl]propane-1,2-diol]", "values": [{"measurement": "EC50", "setting": "[1]", "result": 0.043, "unit": "µM"}, {"measurement": "EC50", "setting": "[3]", "result": 0.049, "unit": "µM"}, {"measurement": "IC50", "setting": "[4]", "result": 0.019, "unit": "µM"}]}, {"smiles": "CC(=O)Nc1ccc(CN2CC=C(c3cc4c(-c5ccc6ncn(Cc7cccc(F)c7)c6c5)ccnc4[nH]3)CC2)cc1", "note": "[Example 26, N-(4-{[4-{4-[1-(3-fluorobenzyl)-1H-benzimidazol-6-yl]-1H-pyrrolo[2,3-b]pyridin-2-yl}-3,6-dihydropyridin-1(2H)-yl]methyl}phenyl)acetamide]", "values": [{"measurement": "EC50", "setting": "[1]", "result": 0.006, "unit": "µM"}, {"measurement": "EC50", "setting": "[3]", "result": 0.026, "unit": "µM"}, {"measurement": "IC50", "setting": "[4]", "result": 0.043, "unit": "µM"}]}, {"smiles": "Fc1cccc(Cn2ccc3ncc(-c4ccnc5[nH]c(C6CCNCC6)cc45)cc32)c1", "note": "[Example 29, 1-(3-fluorobenzyl)-6-[2-(piperidin-4-yl)-1H-pyrrolo[2,3-b]pyridin-4-yl]-1H-pyrrolo[3,2-b]pyridine]", "values": [{"measurement": "EC50", "setting": "[1]", "result": 0.033, "unit": "µM"}, {"measurement": "EC50", "setting": "[3]", "result": 0.087, "unit": "µM"}, {"measurement": "IC50", "setting": "[4]", "result": 0.028, "unit": "µM"}]}, {"smiles": "Fc1cncc(Cn2ccc3ccc(-c4ccnc5[nH]c(C6=CCNCC6)cc45)nc32)c1", "note": "[Example 51, 1′-[(5-fluoropyridin-3-yl)methyl]-2-(1,2,3,6-tetrahydropyridin-4-yl)-1H,1′H-4,6′-bipyrrolo[2,3-b]pyridine]", "values": [{"measurement": "EC50", "setting": "[1]", "result": 0.011, "unit": "µM"}, {"measurement": "EC50", "setting": "[3]", "result": 0.09, "unit": "µM"}, {"measurement": "IC50", "setting": "[4]", "result": 0.014, "unit": "µM"}]}]}
